The nature of the data set: Toxicity against Artemia salina by Spearman-Karber method. The following applies: in vivo. In kind it is organism-based.

Broadly, the LC50 is the concentration that kills 50% of the test population. Low readings indicate a more lethal substance, high ones a less lethal substance.

The structures appear in SMILES notation. Values after ≈ are worked out from the molar mass of the structure shown.

Regarding `CCc1cc(=O)c2c(O)cc(OC)cc2o1`, the 50% lethal concentration (LC50) was 39 µg/mL (≈ 177 µM).

The molecule `COc1cc(OC)c2c(=O)cc(C(C)C)oc2c1` yielded an LC50 of 94.2 µg/mL (≈ 379 µM).

In the case of `COc1cc(OC)c2c(=O)cc(C)oc2c1`, the median lethal concentration (LC50) is 315 µg/mL (≈ 1430 µM).

Consider `CCCc1cc(=O)c2c(O)cc(OC)cc2o1`, for which the LC50 came to 31.5 µg/mL (≈ 134 µM).

Take `COc1cc(OC)c2c(=O)cc(Cc3ccccc3)oc2c1`: the LC50 is 247 µg/mL (≈ 835 µM).

`CCCc1cc(=O)c2c(OC)cc(OC)cc2o1` yielded an LC50 of 106 µg/mL (≈ 427 µM).

In the case of `COc1cc(O)c2c(=O)cc(Cc3ccccc3)oc2c1`, the LC50 was 517 µg/mL (≈ 1830 µM).

Regarding `COc1cc(O)c2c(=O)cc(C)oc2c1` [EUGENIN], the 50% lethal concentration (LC50) came to 112 µg/mL (≈ 544 µM).

`COc1cc(O)c2c(=O)cc(C(C)C)oc2c1` showed a median lethal concentration (LC50) of 23.8 µg/mL (≈ 102 µM).

Regarding `CCc1cc(=O)c2c(OC)cc(OC)cc2o1`, the LC50 is 200 µg/mL (≈ 854 µM).
